# What was measured:
# [1] = test system: HEK293; assay: Cytotoxicity against Homo sapiens (human) HEK293 cells assessed as inhibition of cell proliferation after 24 hr by MTT assay; format: cell-based; conditions: HEK293, 24 h
# [2] = test system: MCF7; assay: Anticancer activity against Homo sapiens (human) MCF7 cells assessed as inhibition of cell proliferation after 24 hr by MTT assay; format: functional, cell-based; conditions: MCF7, 24 h
# [3] = Anticancer activity against Homo sapiens (human) NCI lung cancer cell assessed as inhibition of cell proliferation after 24 hr by MTT assay; format: functional, cell-based; conditions: Cancer cell lines
Structure (SMILES),IC50 [1] [nM],IC50 [2] [nM],IC50 [3] [nM]
CN1CCN(c2nc(-c3ccccc3)c(-c3nc4ccccc4c(=O)n3-c3ccccc3)s2)CC1,860,5840,9890
O=C(c1ccccc1)N1CCN(c2nc(-c3ccccc3)c(-c3nc4ccccc4c(=O)n3-c3ccccc3)s2)CC1,420,19900,13400
O=c1c2ccccc2nc(-c2sc(N3CCNCC3)nc2-c2ccccc2)n1-c1ccccc1,740,46700,2660
CN1CCN(c2nc(-c3ccccc3)c(-c3nc4ccccc4c(=O)n3Nc3ccccc3)s2)CC1,3030,160,1110
O=C(c1ccccc1)N1CCN(c2nc(-c3ccccc3)c(-c3nc4ccccc4c(=O)n3Nc3ccccc3)s2)CC1,800,2490,5590
COc1ccc(Nn2c(-c3sc(N4CCNCC4)nc3-c3ccccc3)nc3ccccc3c2=O)cc1,1110,11400,2920
O=C(c1ccccc1)N1CCN(c2nc(-c3ccccc3)c(-c3nc4ccccc4c(=O)n3-c3ccc(Cl)cc3)s2)CC1,690,> 100000,15600
CN1CCN(c2nc(-c3ccccc3)c(-c3nc4ccccc4c(=O)n3-c3ccc(Cl)cc3)s2)CC1,940,1970,> 100000
O=c1c2ccccc2nc(-c2sc(N3CCNCC3)nc2-c2ccccc2)n1-c1ccc(Cl)cc1,14400,> 100000,6100
COc1ccccc1-n1c(-c2sc(N3CCN(C)CC3)nc2-c2ccccc2)nc2ccccc2c1=O,670,1500,9430
COc1ccccc1-n1c(-c2sc(N3CCNCC3)nc2-c2ccccc2)nc2ccccc2c1=O,550,3700,4330
COc1ccccc1-n1c(-c2sc(N3CCN(C(=O)c4ccccc4)CC3)nc2-c2ccccc2)nc2ccccc2c1=O,2290,660,5930
CN1CCN(c2nc(-c3ccccc3)c(-c3nc4ccccc4c(=O)n3-c3ccccc3[N+](=O)[O-])s2)CC1,810,8900,6720
O=c1c2ccccc2nc(-c2sc(N3CCNCC3)nc2-c2ccccc2)n1-c1ccccc1[N+](=O)[O-],1070,5860,8390
O=C(c1ccccc1)N1CCN(c2nc(-c3ccccc3)c(-c3nc4ccccc4c(=O)n3-c3ccccc3[N+](=O)[O-])s2)CC1,730,6490,11000
O=c1[nH]cc(F)c(=O)[nH]1 [FLUOROURACIL],2150,1250,2300
CN(Cc1cnc2nc(N)nc(N)c2n1)c1ccc(C(=O)N[C@@H](CCC(=O)O)C(=O)O)cc1 [METHOTREXATE],1270,2260,2200

# — ChEMBL document CHEMBL3045216, “Synthesis and screening of 2-(2-(4-substituted piperazine-1-yl)-5-phenylthiazol-4-yl)-3-aryl quinazolinone derivatives as anticancer agents” (Med Chem Res, 2013)
